By solubility is commonly meant the concentration that dissolves in the medium under given conditions.

The text below walks through data of patent publication US20150273070A1, “MODIFIED RELEASE OF 4-METHYL-3-[[4-(3-PYRIDINYL)-2-PYRIMIDINYL]AMINO]-N-[5-(4-METHYL-1H-IMIDAZOL-1-YL)-3-(TRIFLOUOROMETHYL)PHENYL] BENZAMIDE SOLUBILIZED USING ORGANIC ACIDS” (Novartis AG, priority 2011, published 2015).

Data set [1] can be described thus: Solubility of nilotinib in lactic acid. Format: physicochemical. The text has this: Nilotinib solubilized modified release solid dosage forms containing lactic acid were developed. […] Surfactants and/or polymers were used to prevent the precipitation after solubilized nilotinib is released from the formulation matrix. Due to the liquid nature of lactic acid this formulation matrix is in the liquid form. However, by incorporation of additional suitable excipients, the formulation could be solidified at room temperature. This improved the physical and chemical stability of nilotinib in the formulation. In addition, the solid state also provided the opportunity to modulate the drug release rate.

The nature of data set [2]: Solubility of nilotinib in ethanol with citric acid. It is filed as physicochemical.

Regarding `Cc1cn(-c2cc(NC(=O)c3ccc(C)c(Nc4nccc(-c5cccnc5)n4)c3)cc(C(F)(F)F)c2)cn1` [nilotinib, 4-Methyl-3-[[4-(3-pyrldinyl)-2-pyrimidinyl]amino]-N-[5-(4-methyl-1H-imidazol-1-yl)-3-(trifluoromethyl)phenyl] benzamide], the “solubility at intestinal pH” value in data set [1] (in presence of surfactants and/or polymers) is reported as “could maintain its solubility at intestinal pH”. In addition, the solubility in data set [1] (lactic acid, organic solvent or mixture, at 65° C.) is more than 600 mg/mL. For the same compound, the “solubility of the drug in ethanol” value in data set [2] is “remarkably high solubility”.
